Measured values as given in patent publication US20260137758A1, “TREATMENT OF STEATOTIC LIVER DISEASE ASSOCIATED WITH METABOLIC DYSFUNCTION” (priority 2024, published 2026).
Starred links: 1 amine or outer side, 2 acyl side, 3 side chain; linkers in the order of their positions; H or OH if unused. Non-standard residues stand in square brackets, D forms with d. Residues, ends and D or L forms follow the SMILES beside them. Groups on a side chain read outwards from the residue. *: point of attachment. Isobutyryl(2-(3-CN-5-F-Ph)) = CC(C)(C(=O)*)c1cc(F)cc(C#N)c1; C20 diacid = O=C(O)CCCCCCCCCCCCCCCCCCC(=O)*; γGlu = O=C(O)[C@H](CCC(=O)[*:2])N[*:1]; AEEA = NCCOCCOCC(=O)O; Aib = CC(C)(N)C(=O)O; βAla = NCCC(=O)O

Tests used:
[1] = Phase 1 SAD: pharmacokinetics; type: in vivo; details: human, serum; SAD Cohort 4 (6.0 mg) single SC dose; read-out: Vz/F (mean)
Text: PK parameters were also summarized using descriptive statistics (number of participants, mean, geometric mean, standard deviation, coefficient of variation, median, minimum, and maximum). In the SAD portion, the power model was used to assess dose proportionality.

[2] = biological target: T1, human GIPR (Homo sapiens, UniProt P48546); experiment: cAMP accumulation (HitHunter), CHO-K1 cells expressing SNAP-human GIPR; type: cell-based; design: expressed in transfected cells
T1 sequence (P48546 22-466): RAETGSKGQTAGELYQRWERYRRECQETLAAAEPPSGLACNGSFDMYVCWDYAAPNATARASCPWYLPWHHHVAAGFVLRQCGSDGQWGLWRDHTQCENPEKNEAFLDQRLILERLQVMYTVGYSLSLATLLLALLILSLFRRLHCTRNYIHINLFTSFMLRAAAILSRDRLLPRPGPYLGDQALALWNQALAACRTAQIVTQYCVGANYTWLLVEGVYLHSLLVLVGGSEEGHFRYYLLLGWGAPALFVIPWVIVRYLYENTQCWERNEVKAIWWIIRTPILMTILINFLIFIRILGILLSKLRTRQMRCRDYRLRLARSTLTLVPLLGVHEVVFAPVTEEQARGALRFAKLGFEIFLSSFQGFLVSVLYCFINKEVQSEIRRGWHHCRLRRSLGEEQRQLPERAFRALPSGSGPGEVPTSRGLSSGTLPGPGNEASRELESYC
Procedure: (§1) cAMP production was measured using the HitHunter® cAMP Assay for Small Molecules kit in mammalian cell lines overexpressing either GLP-1R or GIPR. […] A total of 10,000 cells in 5 μL of media were added to each well of a 384-well, low-volume assay plate. For mouse receptor cAMP assays, either U2OS cells stably expressing mouse GLP-1R (DiscoverX 95-0179C3) or CHO-K1 cells stably expressing mouse GIPR (DiscoverX 95-0154C2) were used. Twenty-four hours before the assay, 5000-10,000 cells per well were plated in 384-well, low-volume tissue culture-treated plates in Assay Complete Cell Plating reagent 2 (murine GIPR cells) or 5 (murine GLP-1R cells). […] Compounds were diluted 1:1 in DMSO and 5 nL was transferred to the tissue-culture plate wells using an ECHO Acoustic Liquid Handler (Beckman Coulter).
(§2) Each dilution series was normalized to the adjacent high (100%) and low (0%) wells on the plate. Dose-response data were fitted to a curve using nonlinear regression analysis using the “log(agonist) vs response-variable slope” setting, where:
(§3) Y=Bottom+(Top−Bottom)/(1+10^((Log EC50−X)*HillSlope))
(§4) and the Hillslope was constrained to 1. Compound potency and efficacy were extracted from this regression analysis. […] For NanoBiT assays, a single time point during the 30-minute activity measurements was selected for maximum luminescence response. […]

[3] = biological target: T2, human GLP-1R (Homo sapiens, UniProt P43220); experiment: cAMP accumulation (HitHunter), CHO-K1 cells expressing SNAP-human GLP-1R; type: cell-based; design: expressed in transfected cells
Procedure: as §1, §2, §3, §4

[4] = biological target: T1, human GIPR; experiment: β-arrestin-2 recruitment (NanoBiT), HEK293, human GIPR; type: cell-based; design: expressed in transfected cells; host or cells: HEK293 (stably or transiently transfected); details: HEK293, read-out: β-arrestin-2 % Emax
Procedure: (§5) β-arrestin recruitment was measured using Promega's NanoBiT technology and Nano-Glo® Live Cell Substrate in HEK293 cells. β-arrestin-2 recruitment was measured using Promega's NanoBiT technology and Nano-Glo® Live Cell Substrate (catalog number N2012), which uses the NanoLuc luciferase split into two subunits called LgBiT and SmBiT. HEK293 cells were either stably or transiently transfected with equal amounts of DNA plasmids expressing the fusion proteins human GLP-1R-LgBiT or GIPR-LgBiT and SmBiT-(human)-β-arrestin-2; similar methods were used for mouse GLP-1R, GIPR, and β-arrestin-2. […] The following day, the media was removed and replaced with 10 μL of a 1:100 dilution of Nano-Glo® Live Cell Substrate with NanoBiT buffer and OptiMem and equilibrated to room temperature for ten minutes covered. Background luminescence was measured before adding 100 nL of compound dilutions (made in a 1:1 ratio in DMSO). Compounds were transferred using an ECHO Acoustic Liquid Handler (Beckman Coulter) and luminescence was measured at 1.5-minute intervals for 15 minutes using an EnVision Multimode Plate Reader (PerkinElmer; Waltham, MA).
(§6) Each dilution series was normalized to the adjacent high (100%) and low (0%) wells on the plate. […]
(§7) and the Hillslope was constrained to 1. […] For NanoBiT assays, a single time point during the 30-minute activity measurements was selected for maximum luminescence response. […]

[5] = biological target: T2, human GLP-1R; experiment: β-arrestin-2 recruitment (NanoBiT), HEK293, human GLP-1R; type: cell-based; design: expressed in transfected cells; host or cells: HEK293 (stably or transiently transfected); details: HEK293, read-out: β-arrestin-2 % Emax
Procedure: as §5, §6, §7

[6] = biological target: T2, human GLP-1R; experiment: Receptor internalization (Nano-Glo HiBiT), HEK293, human GLP-1R; type: cell-based; design: expressed in transfected cells
Procedure: Receptor internalization for human GLP-1R and GIPR was measured with Promega's Nano-Glo® HiBit extracellular detection system in HEK293 cells. Receptor internalization for human GLP-1R and GIPR was measured using the Promega Nano-Glo© HiBit extracellular detection system (Promega Corporation). HEK293 cells were transiently transfected with 1000:1 ratio of carrier plasmid (pcDNA3.1) and plasmids containing HiBiT-tagged human GLP-1R or human GIPR sequences (Promega Corporation). Cells were dissociated the following day using TrypLE express enzyme (ThermoFisher Scientific) and plated in 96-well plates at 80,000-100,000 cells per well. Forty-eight hours post-transfection, media was replaced with equal parts CO2 independent media (Gibco) and Nano-Glo extracellular buffer containing LgBiT protein (diluted 1:100), and Nano-Glo HiBiT extracellular substrate (diluted 1:50). After a 15-minute equilibration and background luminescence reading, test compounds were added and the luminescence was measured for 120 minutes at two-minute intervals using an EnVision Multimode Plate Reader (PerkinElmer).
as §4

T2 sequence (P43220 24-463): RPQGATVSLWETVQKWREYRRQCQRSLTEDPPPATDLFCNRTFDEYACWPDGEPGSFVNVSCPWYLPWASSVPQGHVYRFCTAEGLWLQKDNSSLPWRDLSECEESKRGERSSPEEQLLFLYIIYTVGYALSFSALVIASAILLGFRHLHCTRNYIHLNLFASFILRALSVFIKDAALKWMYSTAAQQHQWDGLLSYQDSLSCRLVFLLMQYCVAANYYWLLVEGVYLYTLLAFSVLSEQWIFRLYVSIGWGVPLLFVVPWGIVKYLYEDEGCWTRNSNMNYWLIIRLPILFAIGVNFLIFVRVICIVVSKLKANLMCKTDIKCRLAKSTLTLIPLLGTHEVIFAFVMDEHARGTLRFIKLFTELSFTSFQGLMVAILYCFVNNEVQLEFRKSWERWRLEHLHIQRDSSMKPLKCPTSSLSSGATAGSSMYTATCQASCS

In the case of CC[C@H](C)[C@H](NC(=O)[C@H](CC(C)C)NC(=O)[C@H](Cc1c[nH]c2ccccc12)NC(=O)[C@H](CCC(N)=O)NC(=O)[C@@H](NC(=O)[C@H](Cc1ccccc1)NC(=O)[C@H](C)NC(=O)[C@H](CCCCNC(=O)COCCOCCNC(=O)COCCOCCNC(=O)CC[C@H](NC(=O)CCCCCCCCCCCCCCCCCCC(=O)O)C(=O)O)NC(=O)[C@H](CCC(N)=O)NC(=O)[C@H](C)NC(=O)[C@@H](NC(=O)[C@H](CCCCN)NC(=O)[C@H](CC(=O)O)NC(=O)[C@H](CC(C)C)NC(=O)C(C)(C)NC(=O)[C@@H](NC(=O)[C@H](CO)NC(=O)[C@H](Cc1ccc(O)cc1)NC(=O)[C@H](CC(=O)O)NC(=O)[C@H](CO)NC(=O)[C@@H](NC(=O)[C@H](Cc1ccccc1)NC(=O)[C@@H](NC(=O)CNC(=O)[C@H](CCC(=O)O)NC(=O)CCNC(=O)C(C)(C)c1cc(F)cc(C#N)c1)[C@@H](C)O)[C@@H](C)O)[C@@H](C)CC)[C@@H](C)CC)C(C)C)C(=O)N[C@@H](C)C(=O)NCC(=O)NCC(=O)N1CCC[C@H]1C(=O)N[C@@H](CO)C(=O)N[C@@H](CO)C(=O)NCC(=O)N[C@@H](C)C(=O)N1CCC[C@H]1C(=O)N1CCC[C@H]1C(=O)N1CCC[C@H]1C(=O)N[C@@H](CO)C(N)=O [CT-388] ({Isobutyryl(2-(3-CN-5-F-Ph))-βAla}-EGTFTSDYSI[Aib]LDKIAQK([AEEA-AEEA-γGlu-C20 diacid])AFVQWLIAGGPSSGAPPPS-NH2), the Vd/F [1] was 11.4 L, the Emax [2] was 92% and the Emax [3] was 99%. For the same molecule, the Emax [4] was 28%, the Emax [5] was 4% and the Emax [6] was 6%.
